System: AP-1
Assay: Inhibition of AP-1 activation (AP-1 DNA binding activity by EMSA) in LPS-stimulated RAW 264-7 macrophages
Assay type: cell-based, murine
Details: LPS-stimulated RAW 264-7 cells, nuclear extract; for AP-1 DNA binding at the highest concentration: 1000 μM (tested 0.1-1000 μM)
Procedure: The inhibition of the activation of AP-1 was shown with a pharmacological model. For this purpose, a cell culture of the murine macrophage cell line RAW 264-7 was taken and stimulated with 10 mg/ml LPS for 1 hour in the absence or in the presence of flurbiprofen. R-flurbiprofen (0.1, 1, 10, 100 and 1000 μM) and S-flurbiprofen (0.1, 1, 10, 100 and 1000 μM) were dissolved in phosphate buffer, added to the cell cultures 30 minutes before the LPS treatment. After conclusion of the treatment, the cells were harvested and worked up in a cytosol fraction and a cell nucleus extract. The cell nucleus extract ([…]) was incubated for 30 minutes with the AP-1-specific oligonucleotide 5′-CGCTT GATGACTCAGCCGGAA-3′ which is terminally labelled with ^32P ATP. From the incubation medium was separated the nucleus protein DNA complexes from the non-bound DNA by electro-phoresis (electrophoretic mobile shift assay EMSA). After drying of the gels, these were visualised by means of autoradiography.

| SMILES | AP-1 DNA binding at the highest concentration | inhibition of AP-1 DNA binding (10-1000 μM, added 30 minutes before LPS) |
| --- | --- | --- |
| C[C@H](C(=O)O)c1ccc(-c2ccccc2)c(F)c1 [S-flurbiprofen, reference compound] | a reduction was found only in the case of the highest concentration | – |
| C[C@@H](C(=O)O)c1ccc(-c2ccccc2)c(F)c1 [R-flurbiprofen] | completely suppressed | inhibits the AP-1 DNA binding dosage-dependent |

Reference: US8092829B2, “Use of R-arylpropionic acids for treating illnesses with a rheumatic nature” (Paz Arzneimittelentwicklungsgesellschaft mbH, priority 2000, dated 2012)
